Test results: patent publication US9289430B2, “Compounds and methods for inhibiting phosphate transport” (Ardelyx, Inc., priority 2010, dated 2016)

What was measured:
[1] = test system: NaPi2b; assay: Competition with phosphate: uptake assay repeated at 2.1 vs 0.1 mM phosphate; type: cell-based; conditions: potency for inhibition of NaPi2b at 2.1 vs 0.1 mM phosphate
Source text: In certain preferred embodiments, the phosphate transport inhibitors of the present invention are not competitive inhibitors with respect to phosphate of Na/phosphate co-transport. In certain other preferred embodiments, the phosphate transport inhibitors of the invention are non-competitive inhibitors. Non-competitive inhibitors maintain their degree of inhibition irrespective of the local phosphate concentration. This feature is an important aspect in providing an efficient blockade of intestinal transport in postprandial state, where the local concentration of dietary phosphate can attain concentration as high as 10 mM. It is believed that competitive inhibitors are too sensitive to local phosphate concentration and unable to block phosphate uptake following a high phosphorus meal. Various methods are available for determining whether a phosphate transport inhibitor is non-competitive or competitive. For example, a phosphate uptake assay can be performed and the IC50 values for a compound at different phosphate concentrations can be determined (e.g., “Enzyme kinetics”, I. Segel, 1975, John-Wiley & Sons, p. 123). IC50 values for non-competitive inhibitors will remain the same or similar with respect to the phosphate concentration, whereas IC50 values for competitive inhibitors will increase (i.e. lose potency) as phosphate concentration increases.
To ascertain if an inhibitor was competitive for binding with phosphate, the procedure was repeated, but raising the concentration of the substrate in the assay mixture from 0.1 to 2.1 mM phosphate.

[2] = test system: Uptake of Phosphate from the Intestine; assay: In vivo bolus phosphorus challenge; parameters: species or system Sprague-Dawley rats; conditions: rats on low-phosphorus diet, oral drug dose 30 (unit not given) 15 min before phosphate bolus, serum 30 min post bolus
Procedure: By pretreating animals with a low phosphorus diet followed by the subsequent dosing of a phosphorus bolus, serum phosphorus levels were monitored after 30 minutes as a surrogate for intestinal phosphorus absorption. […] The in vivo bolus phosphorus challenge model used here mimics this model in rats.
Male, 7-week-old Sprague-Dawley rats (Charles-River laboratories international, Hollister, Calif.) were allowed to acclimatize for a minimum of 3 days before switching to a synthetic low-phosphorus diet (TD.85010, Harlan Teklad, Madison, Wis.) which contains 0.1% phosphorus and 0.6% calcium. At day 5, testing compounds or vehicle alone (as indicated) were orally administered at the indicated dose in a volume of 5 ml/kg, followed by a bolus gavage of monobasic sodium phosphate (1 mmol in 1 ml) 15 min after compound dosing. Serum was collected via retroorbital bleeding 30 min post phosphate bolus and phosphate levels were determined utilizing an ACE ALERA blood chemistry analyzer (Alfa Wassermann Diagnostic Technologies, West Caldwell, N.J.).
The extent of inhibition by test compounds on the elevation of serum phosphate levels in response to the bolus of phosphate is shown in Table 3 (data are expressed as % Inhibition, with 6-10 animals per data point). The differences between groups were evaluated by one-way analysis of variance with Dunnett's post hoc tests.

[3] = test system: Uptake of Phosphorus from the Intestine; assay: In vivo co-dosing in chow, urinary P output relative to P consumed; parameters: species or system Sprague-Dawley rats; conditions: rats, compound in chow, nominal 100 mg/kg/day (mean actual 104-105 mg/kg/day), mean of 24-96 h, vs control
Source text: Male, 7-week-old Sprague-Dawley rats (Charles-River laboratories international, Hollister, Calif.) were allowed to acclimate for a minimum of 3 days. The experiment was initiated by switching animals to a synthetic diet (0.6% phosphorus and 0.6% calcium, Harlan Teklad TD.84122) for four days. After this time, the animals were placed into metabolic cages for daily monitoring of food and water consumption, as well as urine and fecal collections. Test compounds were incorporated into the powdered diet listed above containing 3% chocolate flavoring (w/w, BioSery #7345) at 1.3 mg test compound per gram of diet to achieve an average daily nominal dose of 100 mg/kg/day. The actual dose received by each animal was later determined by measuring prepared diet consumption and body weight. Urine samples were collected in three daily periods from 24-48, 48-72, and 72-96 hours of drug dosing. […] Phosphorous levels in the urine were determined by anion exchange chromatography using a Dionex ICS-3000 ion chromatography system. […] Elution of urine phosphate ions was monitored via conductivity detector and reported as ppm relative to a standard ion solution containing phosphate. Daily urinary P output relative to the P consumed in the prepared diet for each animal was calculated. […] The differences between the means of control and treated groups were evaluated by t tests. […]

[4] = Determination of compound Cmax and AUC after oral gavage; type: in vivo, Sprague-Dawley rats; conditions: Sprague-Dawley, rat plasma, nominal 10 mg/kg (actual 7.6-11 mg/kg), sampling 0.5-4 h
Procedure: Sprague-Dawley rats were orally gavaged with test article at a nominal dose of 2.5 or 10 mg/kg and blood was collected at 0.5, 1, 2 and 4 h. Blood samples were processed to plasma using K2EDTA as an anticoagulant. Plasma samples were treated with acetonitrile containing an internal standard, precipitated proteins removed by centrifugation. Supernatants were analyzed by LC-MS/MS and compound concentrations were determined by interpolated from a standard curve prepared in plasma. All compounds were orally dosed at the dosage shown, and pharmacokinetic parameters determined

Row | Structure (SMILES) | Competitive with respect to Pi? [1] | % Inhibition of Serum P elevation [2] [%] | Mean % inhibition Urine Pout/P consumed [3] [%] | AUC [4] [ng·h/mL] | Cmax [4] [ng/mL]
1 | CN(CCN1CCOCC1)C(=O)c1cccc(C(=O)Nc2ccc(N3CCCCC3)cc2C(=O)Nc2ccn(-c3cccc(C(F)(F)F)c3)n2)c1 [Example 11, N1-Methyl-N1-(2-morpholinoethyl)-N3-(4-(piperidin-1-yl)-2-((1-(3-(trifluoromethyl)phenyl)-1H-pyrazol-3-yl)carbamoyl)phenyl)isophthalamide] | No | 30.0 |  |  | 
2 | CN(CCN1CCOCC1)C(=O)c1cccc(C(=O)Nc2ccc(Cl)cc2C(=O)Nc2ccn(-c3cccc(C(F)(F)F)c3)n2)c1 [Example 14, N1-(4-Chloro-2-((1-(3-(trifluoromethyl)phenyl)-1H-pyrazol-3-yl)carbamoyl)phenyl)-N3-methyl-N3-(2-morpholinoethyl)isophthalamide 2,2,2-trifluoroacetate] |  |  | 12 | 788 | 487
3 | O=C(O)CCOCCOCCOCCNC(=O)Cc1cccc(SCc2cccc(C(=O)Nc3ccc(N4CCCCC4)cc3C(=O)Nc3ccn(-c4cccc(C(F)(F)F)c4)n3)c2)c1 [Example 26, 2-Oxo-1-(3-((3-((4-(piperidin-1-yl)-2-((1-(3-(trifluoromethyl)phenyl)-1H-pyrazol-3-yl)carbamoyl)phenyl)carbamoyl)benzyl)thio)phenyl)-6,9,12-trioxa-3-azapentadecan-15-oic acid] | No |  |  | < 3 | 
